Assay results as given in publication PMC4853435, “A cell cycle kinase with tandem sensory PAS domains integrates cell fate cues” (Nature Communications, 2016).
pIC50: −log10 of the molar value.

Experiments:
CckA 197–691 (ΔPAS-A) = biological target: T1, CckA 197–691 (ΔPAS-A) (Caulobacter vibrioides, UniProt A0A0H3C8Q4); experiment: autophosphorylation with [gamma-32P]ATP, nitrocellulose capture, phosphorimaging; type: biochemical
T1 construct: residues 197-691 (PAS-B, DHp, CA, RD), His-tagged, E. coli, Ni-NTA
T1 sequence (A0A0H3C8Q4 197-691): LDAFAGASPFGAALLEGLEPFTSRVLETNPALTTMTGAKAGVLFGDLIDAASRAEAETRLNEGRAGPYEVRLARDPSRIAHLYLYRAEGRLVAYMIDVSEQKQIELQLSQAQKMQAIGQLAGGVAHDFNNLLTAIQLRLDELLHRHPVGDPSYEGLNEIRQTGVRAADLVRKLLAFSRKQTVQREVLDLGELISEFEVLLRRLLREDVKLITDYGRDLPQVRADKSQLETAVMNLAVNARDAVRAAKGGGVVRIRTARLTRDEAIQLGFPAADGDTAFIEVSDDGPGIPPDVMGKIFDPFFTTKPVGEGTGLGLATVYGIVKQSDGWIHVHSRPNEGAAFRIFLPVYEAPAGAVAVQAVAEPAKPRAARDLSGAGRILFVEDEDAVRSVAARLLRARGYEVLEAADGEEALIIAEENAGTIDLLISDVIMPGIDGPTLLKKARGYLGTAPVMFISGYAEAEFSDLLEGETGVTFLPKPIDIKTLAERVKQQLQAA

CckA 70–691 (WT) = biological target: T2, CckA 70–691 (WT) (Caulobacter vibrioides, UniProt A0A0H3C8Q4); experiment: as above; type: biochemical
T2 construct: cytosolic region 70-691 (PAS-A, PAS-B, DHp, CA, RD), transmembrane helices removed, N-terminal His6 tag, E. coli, Ni-NTA
T2 sequence (A0A0H3C8Q4 70-691): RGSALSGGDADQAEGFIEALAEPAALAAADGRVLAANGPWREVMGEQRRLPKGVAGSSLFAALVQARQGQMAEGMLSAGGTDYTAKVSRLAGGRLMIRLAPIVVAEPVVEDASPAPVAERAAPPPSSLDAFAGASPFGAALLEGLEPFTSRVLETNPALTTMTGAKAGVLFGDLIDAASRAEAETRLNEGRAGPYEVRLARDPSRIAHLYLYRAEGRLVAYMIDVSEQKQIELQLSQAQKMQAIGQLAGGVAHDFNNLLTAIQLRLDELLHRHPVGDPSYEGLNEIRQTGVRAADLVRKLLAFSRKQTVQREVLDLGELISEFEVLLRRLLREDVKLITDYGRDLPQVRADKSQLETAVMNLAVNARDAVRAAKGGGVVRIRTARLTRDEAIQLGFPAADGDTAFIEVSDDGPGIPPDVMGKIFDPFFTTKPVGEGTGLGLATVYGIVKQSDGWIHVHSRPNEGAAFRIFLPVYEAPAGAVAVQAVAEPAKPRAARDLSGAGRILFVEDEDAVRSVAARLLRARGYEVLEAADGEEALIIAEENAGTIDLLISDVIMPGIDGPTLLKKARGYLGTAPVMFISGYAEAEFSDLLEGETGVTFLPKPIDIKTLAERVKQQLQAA

[1] = biological target: T3, CckA 70–295 (ΔDHp-ΔCA-ΔRD) (Caulobacter vibrioides, UniProt A0A0H3C8Q4); experiment: SPR (Biacore T200, CckA variant amine-coupled to CM5 chip); type: binding; details: 50 mM HEPES pH 8, 200 mM KCl, 5 mM MgCl2, 25 °C
T3 construct: residues 70-295 (PAS-A, PAS-B), pJAB41 in pET28b(+), His-tagged, E. coli, Ni-NTA; immobilised on SPR chip
T3 sequence (A0A0H3C8Q4 70-295): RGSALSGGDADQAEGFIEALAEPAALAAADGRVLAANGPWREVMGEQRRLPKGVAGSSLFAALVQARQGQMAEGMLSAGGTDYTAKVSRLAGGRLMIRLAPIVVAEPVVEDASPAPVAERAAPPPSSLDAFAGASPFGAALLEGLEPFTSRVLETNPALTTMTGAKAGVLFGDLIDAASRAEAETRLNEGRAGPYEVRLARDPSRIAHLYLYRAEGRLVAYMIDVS

[2] = biological target: T4, CckA 197–544 (ΔPAS-A-ΔRD) (Caulobacter vibrioides, UniProt A0A0H3C8Q4); experiment: as above; type: binding; details: 50 mM HEPES pH 8, 200 mM KCl, 5 mM MgCl2, 25 °C
T4 construct: residues 197-544 (PAS-B, DHp, CA), His-tagged, E. coli, Ni-NTA; immobilised on SPR chip
T4 sequence (A0A0H3C8Q4 197-544): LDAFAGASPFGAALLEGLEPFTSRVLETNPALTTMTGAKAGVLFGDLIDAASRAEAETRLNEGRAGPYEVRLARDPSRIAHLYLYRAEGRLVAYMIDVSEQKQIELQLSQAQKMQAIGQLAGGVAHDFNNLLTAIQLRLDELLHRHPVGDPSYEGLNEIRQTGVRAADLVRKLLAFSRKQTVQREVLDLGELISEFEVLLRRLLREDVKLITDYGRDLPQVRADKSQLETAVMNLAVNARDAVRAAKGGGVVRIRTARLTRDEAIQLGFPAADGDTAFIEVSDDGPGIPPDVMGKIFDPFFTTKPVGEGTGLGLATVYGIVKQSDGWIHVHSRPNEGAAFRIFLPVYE

CckA 70–544 (ΔRD) = biological target: T5, CckA 70–544 (ΔRD) (Caulobacter vibrioides, UniProt A0A0H3C8Q4); experiment: as above; type: binding; details: 50 mM HEPES pH 8, 200 mM KCl, 5 mM MgCl2, 25 °C
T5 construct: residues 70-544 (PAS-A, PAS-B, DHp, CA), receiver domain removed, His-tagged, E. coli, Ni-NTA; immobilised on SPR chip
T5 sequence (A0A0H3C8Q4 70-544): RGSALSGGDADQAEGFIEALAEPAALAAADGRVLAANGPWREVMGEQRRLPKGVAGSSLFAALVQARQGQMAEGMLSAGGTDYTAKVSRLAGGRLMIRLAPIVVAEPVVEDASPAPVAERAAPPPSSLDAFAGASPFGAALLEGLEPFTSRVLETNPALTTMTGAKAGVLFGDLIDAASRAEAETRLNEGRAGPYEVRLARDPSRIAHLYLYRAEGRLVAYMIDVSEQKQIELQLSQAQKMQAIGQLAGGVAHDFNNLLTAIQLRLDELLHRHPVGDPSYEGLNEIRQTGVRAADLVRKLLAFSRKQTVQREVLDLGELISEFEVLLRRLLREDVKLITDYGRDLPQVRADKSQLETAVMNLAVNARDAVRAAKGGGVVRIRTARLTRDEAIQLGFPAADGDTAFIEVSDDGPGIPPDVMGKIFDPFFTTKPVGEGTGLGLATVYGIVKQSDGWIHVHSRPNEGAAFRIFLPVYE

CckA 70–378 (ΔCA-ΔRD) = biological target: T6, CckA 70–378 (ΔCA-ΔRD) (Caulobacter vibrioides, UniProt A0A0H3C8Q4); experiment: as above; type: binding; details: 50 mM HEPES pH 8, 200 mM KCl, 5 mM MgCl2, 25 °C
T6 construct: residues 70-378 (PAS-A, PAS-B, DHp), His-tagged, E. coli, Ni-NTA; immobilised on SPR chip
T6 sequence (A0A0H3C8Q4 70-378): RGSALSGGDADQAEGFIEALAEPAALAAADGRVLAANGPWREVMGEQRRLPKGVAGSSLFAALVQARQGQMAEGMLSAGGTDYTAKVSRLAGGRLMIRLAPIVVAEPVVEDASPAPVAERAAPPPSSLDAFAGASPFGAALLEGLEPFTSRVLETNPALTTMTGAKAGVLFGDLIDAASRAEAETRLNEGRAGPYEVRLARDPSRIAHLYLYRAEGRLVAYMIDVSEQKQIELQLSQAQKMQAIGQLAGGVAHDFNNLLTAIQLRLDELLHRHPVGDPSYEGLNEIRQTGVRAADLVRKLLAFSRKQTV

Nc1nc2c(ncn2[C@@H]2O[C@@H]3COP(=O)(O)O[C@H]4[C@@H](O)[C@H](n5cnc6c(=O)[nH]c(N)nc65)O[C@@H]4COP(=O)(O)O[C@H]3[C@H]2O)c(=O)[nH]1 [c-di-GMP]
pIC50 (CckA 197–691 (ΔPAS-A)): 4.66 | pIC50 (CckA 70–691 (WT)): 4.57 | SPR (Biacore T200, CckA variant amine-coupled to CM5 chip) [1]: Each construct still displayed concentration dependence in response to c-di-GMP | SPR (Biacore T200, CckA variant amine-coupled to CM5 chip) [2]: Each construct still displayed concentration dependence in response to c-di-GMP | SPR (Biacore T200, CckA variant amine-coupled to CM5 chip) (CckA 70–544 (ΔRD)): The concentration-dependent response we observed demonstrates that c-di-GMP directly binds CckA | SPR (Biacore T200, CckA variant amine-coupled to CM5 chip) (CckA 70–378 (ΔCA-ΔRD)): removal of the ATP-binding CA domain resulted in a minor reduction in c-di-GMP binding
